PubChem BioAssay (NCI)
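Compound exposure: 48 hours, 5 concentrations, 96-well plates. TGI is the concentration that stops growth completely.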

How the values were obtained:
Assay in all cases: NCI tumour cell line growth inhibition, 48 h
DMS 273 small cell lung = tested on: DMS 273 small cell lung
SNB-78 CNS = tested on: SNB-78 CNS
LXFL 529 NSCLC = tested on: LXFL 529 NSCLC
DMS 114 small cell lung = tested on: DMS 114 small cell lung
KM20L2 colon = tested on: KM20L2 colon
DLD-1 colon = tested on: DLD-1 colon
SN12K1 renal = tested on: SN12K1 renal
XF 498 CNS = tested on: XF 498 CNS
HOP-18 NSCLC = tested on: HOP-18 NSCLC
P388 leukemia = tested on: P388 leukemia
P388/ADR leukemia = tested on: P388/ADR leukemia
M19-MEL melanoma = tested on: M19-MEL melanoma

Cc1c(N2CCN(C)CC2)nc2ccc(Cl)cc2c1-c1ccccc1
TGI (DMS 273 small cell lung): 32.1 µM
TGI (SNB-78 CNS): 39.8 µM
TGI (LXFL 529 NSCLC): 31.7 µM
TGI (DMS 114 small cell lung): 31 µM
TGI (KM20L2 colon): 31.2 µM

COC(=O)c1ccc(N=NN(C)COc2ccc(Br)cc2)cc1
TGI (DMS 273 small cell lung): > 100 µM
TGI (DLD-1 colon): > 100 µM
TGI (SN12K1 renal): > 100 µM
TGI (XF 498 CNS): > 100 µM
TGI (SNB-78 CNS): > 100 µM
TGI (HOP-18 NSCLC): > 100 µM
TGI (DMS 114 small cell lung): > 100 µM
TGI (P388 leukemia): > 100 µM
TGI (P388/ADR leukemia): > 100 µM
TGI (M19-MEL melanoma): > 100 µM
TGI (KM20L2 colon): > 100 µM

CC(C)N=C(N)NC#N
TGI (DLD-1 colon): > 100 µM
TGI (XF 498 CNS): > 100 µM
TGI (SNB-78 CNS): > 100 µM
TGI (HOP-18 NSCLC): > 100 µM
TGI (LXFL 529 NSCLC): > 100 µM
TGI (DMS 114 small cell lung): > 100 µM
TGI (M19-MEL melanoma): > 100 µM
TGI (KM20L2 colon): > 100 µM

COC1C(O)C(n2ncc3c(SC)nc(SC)nc32)OC1C(O)CO (stereo unspecified)
TGI (DMS 273 small cell lung): > 100 µM
TGI (DLD-1 colon): > 100 µM
TGI (SN12K1 renal): > 67.4 µM
TGI (XF 498 CNS): > 100 µM
TGI (SNB-78 CNS): > 100 µM
TGI (HOP-18 NSCLC): > 100 µM
TGI (DMS 114 small cell lung): > 100 µM
TGI (P388 leukemia): > 100 µM
TGI (P388/ADR leukemia): > 100 µM
TGI (M19-MEL melanoma): > 100 µM
TGI (KM20L2 colon): > 100 µM

CC(C)NC(=O)OCc1c(CO)c2c(n1C)-c1ccccc1CC2
TGI (DMS 273 small cell lung): 62.4 µM
TGI (DLD-1 colon): 46.4 µM
TGI (SN12K1 renal): 35.1 µM
TGI (XF 498 CNS): 31.3 µM
TGI (SNB-78 CNS): 86.7 µM
TGI (HOP-18 NSCLC): 70.1 µM
TGI (DMS 114 small cell lung): 40.7 µM
TGI (P388 leukemia): 32.7 µM
TGI (P388/ADR leukemia): 53.9 µM
TGI (M19-MEL melanoma): 59.3 µM
TGI (KM20L2 colon): > 84.5 µM
